The experiment has as its system Vero cells. It is filed as cell-based. The settings on record: read-out: IC50 of toxicity.

For `C[C@@H]1C[C@@H]([C@H](O)CC2CC(=O)NC(=O)C2)C(=O)[C@@H](C)C1` [cyclohexamide], the IC50 stood at 200 nM.

The term IC50 denotes the midpoint of a concentration-inhibition curve.

The values above are taken from patent publication US20230181700A1 (priority 2021, published 2023).
